Results taken from US10407445B2, “Hepatitis C virus inhibitors” (ENANTA PHARMACEUTICALS, INC., priority 2013, dated 2019).

Experiments:
Type in all cases: cell-based
[1] = test system: GT1a replicon encoding NS5A mutation Q30R; assay: Transient replication assay, GT1a replicon with NS5A mutation Q30R; conditions: Hepatitis C virus, read-out: EC50 1a Q30R
[2] = test system: GT1a replicon encoding NS5A mutation Y93C; assay: Transient replication assay, GT1a replicon with NS5A mutation Y93C; conditions: Hepatitis C virus, read-out: EC50 1a Y93C
HCV GT 1b replicon = assay: HCV replicon assay, stable GT 1b replicon (Renilla luciferase); conditions: Hepatitis C virus, GT1B, 72 h
Description: (§1) The activity of compounds was determined against HCV replicons representing genotypes (GT) 1a, 1b, 2a, and 3a. To generate stable Huh-7.5-based cell lines, HCV replicons were engineered to express the Renilla luciferase reporter (hRluc) fused to the neomycin phosphotransferase (Neo) gene. GT2a and GT3a HCV replicons were based on the JFH-1 subgenomic replicon (Kato et al. 2003 Gastroenterology, 125:1808-1817), in which the NS5A gene was replaced with that of strains J6 and S52 (GT2a and G3a, respectively). The activity of compounds against GT1a replicons encoding NS5A mutations (M28T, Q30R, L31M, Y93C, and Y93H) was also determined in a transient replication assay. The parental GT1a and GT2a replicons (pH/SG-Neo(L+I) and pSG-Neo-JFH1, respectively) were licensed from Apath LLC (Saint Louis, Mo.). The parental GT 1b replicon (pFKi389lucubineo_3_3′_ET) was licensed from ReBLikon GmbH (Germany). HCV replicons were constructed by standard molecular biology techniques described below. All replicon constructs were verified by restriction enzyme digestion and DNA sequencing.
The hRluc-Neo cassette was PCR amplified from pF9 cytomegalovirus (CMV) hRluc-Neo Flexi(R) (Promega) using Accuprime Super Mix II (Invitrogen) and the following primers, which introduce restriction sites: […]
The amplification product was subcloned into pCR2.1-TOPO (Invitrogen). The resulting plasmid was digested with AscI and NotI, and the excised hRluc-Neo fragment was ligated using the Roche Quick Ligation Kit (Roche) into pFKi389lucubineo_3_3′_ET digested with the same enzymes.
Stable HCV replicon cell lines were grown in complete media (Dulbecco's modified Eagle medium [DMEM], 2 mM L-glutamine, 0.1 mM essential amino acids, 1 mM sodium pyruvate, 10% heat inactivated fetal bovine serum) with the addition 500 μg/ml […] (G418). Huh7-lunet cells were maintained in the same medium without the addition of G418. Cells were routinely passaged at a dilution of 1:4 two times a week. The assay medium for both luciferase reporter HCV replicon and cytotoxicity assays used phenol red-free DMEM and lacked G418. For each stable replicon assay, a sixteen point half-log dilution series of compound was stamped (0.5 ul compound per well) into three replica 384-well plates, to which cells were added directly (4000 cells/well). For the transient replication assay, Huh7-lunet cells in ice-cold phosphate buffered saline (PBS) were electroporated (BioRad electroporator; 950 uF, 270V) with 10 ug purified in vitro transcribed HCV replicon RNA, followed by resuspension in complete media and plating (8000 cells/well) into compound stamped 384-well plates. Luciferase activity of compound-treated cells was measured relative to DMSO-treated cells after 72 h incubation using RENILLA-GLO™ Luciferase Assay (Promega). Cytotoxicity (CC50) in the GT1b replicon cell line was analyzed using CELL TITER-GLO™ (Promega).
The compounds of the present invention can be effective against the HCV 1b genotype. It should also be understood that the compounds of the present invention can inhibit multiple genotypes of HCV. In one embodiment compound of the present invention are active against the 1a, 1b, 2a, 2b, 3a, 4a, and 5a genotypes. In another embodiment compound of the present invention are active against the HCV resistant mutants. […] EC50s are in pM against HCV GT 1a and GT 1b; and nM against GT 2a-J6, GT 3a and GT1a resistant variants (M28T, Q30R, L31V, Y93C and Y93H).

[3] = test system: GT1a replicon encoding NS5A mutation M28T; assay: Transient replication assay, GT1a replicon with NS5A mutation M28T; conditions: Hepatitis C virus, read-out: EC50 1a M28T
HCV GT 2a-J6 replicon = assay: HCV replicon assay, GT2a chimeric replicon expressing NS5A from GT2a strain J6; conditions: Hepatitis C virus, 72 h, read-out: EC50 2a J6
Description: as §1
(§2) The plasmid pSG-hRlucNeo-JFH1 was generated from pSG-Neo-JFH1 (Kato et al. 2003, Gastroentrology 125:1808-1817). A fragment containing the JFH-1 5′ NTR—hRluc-Neo gene and two unique restriction sites (AgeI and PmeI) was synthesized (Integrated DNA Technologies, Coralville, Iowa). The resulting synthetic plasmid was digested with AgeI and PmeI and the excised fragment (5′NTR-hRluc-Neo) was ligated into pSG-Neo-JFH1 digested with the same enzymes to generate pSG-hRlucNeo-JFH1. To allow expression of heterologous NS5A sequences, an NS5A shuttle vector was generated from pSG-Neo-JFH1, in which the entire coding sequence of NS5A plus the first eight codons of NS5B were replaced with an AfeI restriction site. This was done by Infusion cloning (Clontech, Mountain View, Calif.) from two PCR products that were generated using pSG-Neo-JFH1 as a template and the following primer pairs:
(§3) Underlined sequences denote regions of overlap necessary for Infusion cloning. Purified PCR products were cloned directly into an NsiI/SnaBI digested pSG-Neo-JFH1 following the manufacturer's instructions to generate pSG-Neo-JFH1-5Ashuttle. The 2023 base pair AgeI/PmeI fragment from pSG-hRlucNeo-JFH1 was then ligated into pSG-Neo-JFH1-5Ashuttle to generate pSG-hRlucNeo-JFH1-5Ashuttle. To generate the 2a-2a-(J6) and 2a-3a-(S52) NS5A chimeric replicons, the full length NS5A sequences from GT2a strain J6 (accession AF177036) and GT3a strain S52 (accession GU814263), with the addition of the first eight codons of JFH-1 NS5B (5′-TCCATGTCATACTCCTGGACCGGG-3′), were synthesized by GeneArt (Life Technologies, Carlsbad Calif.). J6 and S52 NS5A sequences were then PCR amplified from the synthetic clones using the appropriate forward primer:
(§4) Underlined sequences denote regions of overlap with pSG-hRlucNeo-JFH1-5Ashuttle necessary for Infusion cloning. Purified PCR products were directly cloned into AfeI-digested shuttle vector by Infusion cloning following the manufacturer's instructions.
(§5) Stable HCV replicon cell lines were grown in complete media (Dulbecco's modified Eagle medium [DMEM], 2 mM L-glutamine, 0.1 mM essential amino acids, 1 mM sodium pyruvate, 10% heat inactivated fetal bovine serum) with the addition 500 μg/ml […] (G418). Huh7-lunet cells were maintained in the same medium without the addition of G418. Cells were routinely passaged at a dilution of 1:4 two times a week. The assay medium for both luciferase reporter HCV replicon and cytotoxicity assays used phenol red-free DMEM and lacked G418. For each stable replicon assay, a sixteen point half-log dilution series of compound was stamped (0.5 ul compound per well) into three replica 384-well plates, to which cells were added directly (4000 cells/well). […]

HCV GT 3a replicon = assay: HCV replicon assay, GT2a chimeric replicon expressing NS5A from GT3a strain S52; conditions: Hepatitis C virus, 72 h, read-out: EC50 3a
Description: as §1, §2, §3, §4, §5

| SMILES | EC50 [1] [nM] | EC50 [2] [nM] | EC50 (HCV GT 1b replicon) [nM] | EC50 [3] [nM] | EC50 (HCV GT 2a-J6 replicon) [nM] | EC50 (HCV GT 3a replicon) [nM] |
| --- | --- | --- | --- | --- | --- | --- |
| COC(=O)N[C@H](C(=O)N1C[C@]2(CCCOC2)C[C@H]1c1ncc(-c2ccc3c(ccc4cc(-c5cnc([C@@H]6C[C@@H]7CCCC[C@@H]7N6C(=O)[C@@H](NC(=O)OC)C(C)C)[nH]5)ccc43)c2)[nH]1)C(C)C [Compound 17] | 0.01 | 0.3 | 0.013 | 0.008 | 22 | 6 |
| COC(=O)N[C@H](C(=O)N1C[C@]2(CCCOC2)C[C@H]1c1ncc(-c2ccc(-c3ccc4c(ccc5nc([C@@H]6C[C@H]7C[C@H]7N6C(=O)[C@@H](NC(=O)OC)C(C)C)[nH]c54)c3)cc2)[nH]1)C(C)C [Compound 18] | 0.05 | 0.2 | 0.011 | 0.2 | 2 | 1 |
| COC(=O)N[C@H](C(=O)N1C[C@]2(CCCOC2)C[C@H]1c1ncc(-c2ccc(-c3ccc4c(ccc5nc([C@@H]6C[C@@H]7C[C@@H]7N6C(=O)[C@@H](NC(=O)OC)C(C)C)[nH]c54)c3)cc2)[nH]1)C(C)C [Compound 20] | 0.2 | 1 | 0.011 | 0.9 | 23 | 1 |
| COC(=O)N[C@H](C(=O)N1C[C@]2(CCCOC2)C[C@H]1c1nc2ccc3cc(-c4ccc5c(ccc6nc([C@@H]7C[C@@H]8C[C@@H]8N7C(=O)[C@@H](NC(=O)OC)C(C)C)[nH]c65)c4)ccc3c2[nH]1)C(C)C [Compound 21] | 0.1 | 0.09 | 0.03 | 0.2 | 2 | 0.09 |
| COC(=O)N[C@H](C(=O)N1C[C@]2(CCCOC2)C[C@H]1c1nc2ccc3cc(-c4ccc(-c5cnc([C@@H]6C[C@@H]7C[C@@H]7N6C(=O)[C@@H](NC(=O)OC)C(C)C)[nH]5)cc4)ccc3c2[nH]1)C(C)C [Compound 22] | 0.1 | 0.3 | 0.008 | 0.1 | 6 | 0.6 |
| COC(=O)N[C@H](C(=O)N1C[C@]2(CCCOC2)C[C@H]1c1nc2ccc3cc(-c4ccc5c(ccc6nc([C@@H]7C[C@@H]8CCCC[C@@H]8N7C(=O)[C@@H](NC(=O)OC)C(C)C)[nH]c65)c4)ccc3c2[nH]1)C(C)C [Compound 23] | 0.01 | 0.02 | 0.007 | 0.02 | 0.05 | 0.06 |
| COC(=O)N[C@H](C(=O)N1C[C@]2(CCCOC2)C[C@H]1c1nc2ccc3cc(-c4ccc(-c5cnc([C@@H]6C[C@@H]7CCCC[C@@H]7N6C(=O)[C@@H](NC(=O)OC)C(C)C)[nH]5)cc4)ccc3c2[nH]1)C(C)C [Compound 24] | 0.02 | 0.09 | 0.006 | 0.02 | 0.3 | 0.1 |
| COC(=O)N[C@H](C(=O)N1CCC[C@H]1c1nc2c([nH]1)-c1ccc(-c3ccc4c(ccc5nc([C@@H]6C[C@@]7(CCCOC7)CN6C(=O)[C@@H](NC(=O)OC)C(C)C)[nH]c54)c3)cc1OC2)C(C)C [Compound 25] | 0.2 | 0.09 | 0.068 | 0.5 | 0.8 | 0.6 |
| COC(=O)N[C@H](C(=O)N1C[C@]2(CCOC2)C[C@H]1c1ncc(-c2ccc(-c3ccc4c(ccc5nc([C@@H]6CCCN6C(=O)[C@@H](NC(=O)OC)C(C)C)[nH]c54)c3)cc2)[nH]1)C(C)C [Compound 26] | 0.8 | 0.8 | 0.022 | 3 | 22 | 2 |
| COC(=O)N[C@H](C(=O)N1C[C@@]2(CCCOC2)C[C@H]1c1ncc(-c2ccc(-c3ccc4c(ccc5nc([C@@H]6CCCN6C(=O)[C@@H](NC(=O)OC)C(C)C)[nH]c54)c3)cc2)[nH]1)C(C)C [Compound 27] | 0.06 | 0.02 | 0.022 | 0.03 | 50 | 297 |
| COC(=O)N[C@H](C(=O)N1C[C@]2(CCCOC2)C[C@H]1c1ncc(-c2ccc(-c3ccc4c(ccc5nc([C@@H]6CC7(CC7)CN6C(=O)[C@@H](NC(=O)OC)C(C)C)[nH]c54)c3)cc2)[nH]1)C(C)C [Compound 28] | 0.06 | 0.1 | 0.011 | 0.09 | 13 | 0.5 |
| COC(=O)N[C@H](C(=O)N1C[C@]2(CCCOC2)C[C@H]1c1ncc(-c2ccc(-c3ccc4c(ccc5nc([C@@H]6C[C@@H]7CCCC[C@@H]7N6C(=O)[C@@H](NC(=O)OC)C(C)C)[nH]c54)c3)cc2)[nH]1)C(C)C [Compound 29] | 0.01 | 0.1 | 0.004 | 0.02 | 2 | 0.3 |
| COC(=O)N[C@H](C(=O)N1C[C@]2(CCCOC2)C[C@H]1c1ncc(-c2ccc(-c3ccc4c(c3)OCc3nc([C@@H]5CCCN5C(=O)[C@@H](NC(=O)OC)C(C)C)[nH]c3-4)cc2)[nH]1)C(C)C [Compound 30] | 0.1 | 0.5 | 0.045 | 0.6 | 1 | 2 |
| COC(=O)N[C@H](C(=O)N1C[C@]2(CCCOC2)C[C@H]1c1nc2ccc3cc(-c4ccc5c(ccc6nc([C@@H]7C[C@@]8(CCCOC8)CN7C(=O)[C@@H](NC(=O)OC)C(C)C)[nH]c65)c4)ccc3c2[nH]1)C(C)C [Compound 31] | 0.02 | 0.007 | 0.058 | 0.007 | 0.3 | 0.1 |
